{"source": "ChEMBL document CHEMBL5247651", "about": "“Oxadiazolopyridine Derivatives as Efficacious Mitochondrial Uncouplers in the Prevention of Diet-Induced Obesity” (J Med Chem, 2023)", "key": {"Mus musculus [1]": {"test_system": "Mus musculus", "assay": "Anti-obesity activity in high-fat diet induced obesity C57BL/6 mouse model assessed as increase in carbon dioxide production at 130 mg/kg, po measured upto 4 hrs by indirect calorimetric analysis", "assay_type": "functional, organism-based"}, "[2]": {"assay": "Induction of mitochondrial uncoupling activity in rat L6 cells assessed as increase in oxygen consumption rate measured after 90 mins by agilent Seahorse XF analyzer", "assay_type": "functional, cell-based"}, "[3]": {"assay": "Cmax in C57BL/6 mouse at 10 mg/kg, po administered via gavage measured upto 24 hrs by LC/MS-MS analysis", "assay_type": "ADME, organism-based", "set-up": "dose 10 mg/kg, time < 24 hrs, route po", "settings": "in vivo"}, "[4]": {"assay": "Half life in C57BL/6 mouse at 10 mg/kg, po administered via gavage measured upto 24 hrs by LC/MS-MS analysis", "assay_type": "ADME, organism-based", "settings": "in vivo"}, "[5]": {"assay": "Cmax in Swiss albino mouse at 10 mg/kg, po administered via gavage measured upto 24 hrs by LC/MS-MS analysis", "assay_type": "ADME, organism-based", "set-up": "time < 24 hrs, dose 10 mg/kg, route po", "settings": "in vivo"}, "[6]": {"assay": "Half life in Swiss albino mouse at 10 mg/kg, po administered via gavage measured upto 24 hrs by LC/MS-MS analysis", "assay_type": "ADME, organism-based", "settings": "in vivo"}, "[7]": {"assay": "Induction of mitochondrial respiration in rat L6 cells assessed as fold increase in basal respiration upto 200 uM", "assay_type": "functional"}, "[8]": {"assay": "Induction of mitochondrial respiration in rat L6 cells assessed as fold increase in basal respiration at 25 uM followed by BAM15 addition", "assay_type": "functional"}, "L6 [9]": {"test_system": "L6", "assay": "Induction of mitochondrial respiration in rat L6 cells assessed as fold increase in basal respiration at 25 uM in presence of oligomycin", "assay_type": "functional, cell-based"}, "L6 [10]": {"test_system": "L6", "assay": "Induction of mitochondrial respiration in rat L6 cells assessed as fold increase in basal respiration at 25 uM in presence of antimycin and rotenone", "assay_type": "functional, cell-based"}, "[11]": {"assay": "Solubility of compound at pH 7.4", "assay_type": "physicochemical", "settings": "buffer"}, "[12]": {"assay": "Apparent permeability across basolateral to apical side in human Caco-2 cells", "assay_type": "ADME, cell-based"}, "[13]": {"assay": "Cmax in C57BL/6 mouse at 1 mg/kg, iv measured upto 24 hrs by LC/MS-MS analysis", "assay_type": "ADME, organism-based", "set-up": "time < 24 hrs, dose 1 mg/kg, route iv", "settings": "in vivo"}, "[14]": {"assay": "Half life in C57BL/6 mouse at 1 mg/kg, iv measured upto 24 hrs by LC/MS-MS analysis", "assay_type": "ADME, organism-based", "settings": "in vivo"}, "[15]": {"assay": "Observed apparent volume of distribution in C57BL/6 mouse at 1 mg/kg, iv measured upto 24 hrs by LC/MS-MS analysis", "assay_type": "ADME, organism-based", "settings": "in vivo, read-out: Vz"}, "[16]": {"assay": "Observed volume of distribution at steady state in C57BL/6 mouse at 1 mg/kg, iv measured upto 24 hrs by LC/MS-MS analysis", "assay_type": "ADME, organism-based", "settings": "in vivo, read-out: Vdss"}, "Mus musculus [17]": {"test_system": "Mus musculus", "assay": "Anti-obesity activity in high-fat diet induced obesity C57BL/6 mouse model assessed as increase in energy expenditure at 130 mg/kg, po measured upto 4 hrs by indirect calorimetric analysis", "assay_type": "functional, organism-based"}, "Mus musculus [18]": {"test_system": "Mus musculus", "assay": "Anti-obesity activity in high-fat diet induced obesity C57BL/6 mouse model assessed as increase in carbohydrate oxidation at 130 mg/kg, po measured upto 4 hrs by indirect calorimetric analysis", "assay_type": "functional, organism-based"}, "Mus musculus [19]": {"test_system": "Mus musculus", "assay": "Anti-obesity activity in high-fat diet induced obesity C57BL/6 mouse model assessed as increase in locomotory activity at 130 mg/kg, po measured upto 4 hrs by indirect calorimetric analysis", "assay_type": "functional, organism-based"}, "Mus musculus [20]": {"test_system": "Mus musculus", "assay": "Anti-obesity activity in high-sugar western diet induced obesity C57BL/6j mouse model assessed as decrease in fat-free lean mass at 130 mg/kg per day, po administered measured after 2 weeks by EchoMRI analysis", "assay_type": "functional", "set-up": "scale not given: the % may be the effect or the level left"}, "Mus musculus [21]": {"test_system": "Mus musculus", "assay": "Anti-obesity activity in high-sugar western diet induced obesity C57BL/6j mouse model assessed as decrease in fat-free mass body composition at 130 mg/kg per day, po administered measured after 2 weeks by EchoMRI analysis (reference value: 77%)", "assay_type": "functional", "set-up": "scale not given: the % may be the effect or the level left"}, "Mus musculus [22]": {"test_system": "Mus musculus", "assay": "Anti-obesity activity in high-sugar western diet induced obesity C57BL/6j mouse model assessed as decrease in glucose level AUC at 130 mg/kg per day, po administered measured after 10 days in presence of glucose by glucose tolerance test", "assay_type": "functional, organism-based", "settings": "time 10.0 day"}, "Mus musculus [23]": {"test_system": "Mus musculus", "assay": "Anti-obesity activity in fasted C57BL/6j mouse assessed as decrease in serum glucose level at 130 mg/kg per day, po administered measured after 2 weeks", "assay_type": "functional, organism-based"}, "Mus musculus [24]": {"test_system": "Mus musculus", "assay": "Anti-obesity activity in high-sugar western diet induced obesity C57BL/6j mouse model assessed as decrease in insulin level at 130 mg/kg per day, po administered measured after 2 weeks", "assay_type": "functional, organism-based"}, "[25]": {"assay": "Drug distribution in fasted C57BL/6j mouse liver at 130 mg/kg, po by LC-MS/MS analysis", "assay_type": "ADME, organism-based", "settings": "in vivo"}, "[26]": {"assay": "Drug distribution in fasted C57BL/6j mouse brown adipose tissue at 130 mg/kg, po by LC-MS/MS analysis", "assay_type": "ADME, organism-based", "settings": "in vivo"}, "[27]": {"assay": "Drug distribution in fasted C57BL/6j mouse […] white adipose tissue at 130 mg/kg, po by LC-MS/MS analysis", "assay_type": "ADME, organism-based", "settings": "in vivo"}, "[28]": {"assay": "Drug distribution in fasted C57BL/6j mouse liver at 10 mg/kg, po measured after 2 hrs by LC-MS/MS analysis", "assay_type": "ADME, organism-based", "settings": "in vivo"}, "Mus musculus [29]": {"test_system": "Mus musculus", "assay": "Anti-obesity activity in high-sugar western diet induced obesity C57BL/6j mouse model assessed as reversal of body weight at 130 mg/kg per day, po administered via gavage daily measured after 3 weeks", "assay_type": "functional, organism-based"}, "Mus musculus [30]": {"test_system": "Mus musculus", "assay": "Anti-obesity activity in high-sugar western diet induced obesity C57BL/6j mouse model assessed as reversal of fat mass gain at 130 mg/kg per day, po administered via gavage daily measured after 3 weeks", "assay_type": "functional, organism-based"}, "Mus musculus [31]": {"test_system": "Mus musculus", "assay": "Anti-obesity activity in high-sugar western diet induced obesity C57BL/6j mouse model assessed as decrease in retroperitoneal fat pad weight at 130 mg/kg per day, po administered via gavage daily measured after 3 weeks", "assay_type": "functional, organism-based"}, "Mus musculus [32]": {"test_system": "Mus musculus", "assay": "Anti-obesity activity in high-sugar western diet induced obesity C57BL/6j mouse model assessed as decrease in subcutaneous fat pad weight at 130 mg/kg per day, po administered via gavage daily measured after 3 weeks", "assay_type": "functional, organism-based"}, "Mus musculus [33]": {"test_system": "Mus musculus", "assay": "Anti-obesity activity in high-sugar western diet induced obesity C57BL/6j mouse model assessed as decrease in muscle weight at 130 mg/kg per day, po administered via gavage daily measured after 3 weeks", "assay_type": "functional, organism-based"}, "Mus musculus [34]": {"test_system": "Mus musculus", "assay": "Anti-obesity activity in high-sugar western diet induced obesity C57BL/6j mouse model assessed as effect on fecal triglyceride level at 130 mg/kg per day, po administered via gavage daily measured after 3 weeks by colorimetric analysis", "assay_type": "functional, organism-based"}, "Mus musculus [35]": {"test_system": "Mus musculus", "assay": "Anti-obesity activity in high-sugar western diet induced obesity C57BL/6j mouse model assessed as effect on free fatty acid level at 130 mg/kg per day, po administered via gavage daily measured after 3 weeks by fluorometric analysis", "assay_type": "functional, organism-based"}, "Mus musculus [36]": {"test_system": "Mus musculus", "assay": "Anti-obesity activity in high-sugar western diet induced obesity C57BL/6j mouse model assessed as decrease in rectal temperature at 130 mg/kg per day, po administered via gavage daily measured after 1 hr at day 11", "assay_type": "functional, organism-based"}, "Mus musculus [37]": {"test_system": "Mus musculus", "assay": "Anti-obesity activity in C57BL/6j mouse assessed as decrease in serum glucose level at 130 mg/kg per day, po administered via gavage daily measured after 3 weeks", "assay_type": "functional, organism-based"}, "Mus musculus [38]": {"test_system": "Mus musculus", "assay": "Anti-obesity activity in C57BL/6j mouse assessed as decrease in serum insulin level at 130 mg/kg per day, po administered via gavage daily measured after 3 weeks by ELISA assay", "assay_type": "functional, organism-based"}, "Mus musculus [39]": {"test_system": "Mus musculus", "assay": "Anti-obesity activity in C57BL/6j mouse assessed as effect on plasma free fatty acid level at 130 mg/kg per day, po administered via gavage daily measured after 3 weeks", "assay_type": "functional, organism-based"}}, "note": "Activity calls are given as the source filed them. The calls are words filed in the database; no cut-off is given here."}
{"smiles": "Oc1nc2nonc2cc1Nc1c(F)c(F)c(F)c(F)c1F", "values": [{"measurement": "Activity", "setting": "Mus musculus [1]", "value": "Active"}, {"measurement": "EC50", "setting": "[2]", "value": 17.1, "unit": "µM"}, {"measurement": "pEC50", "setting": "[2]", "value": 4.8}, {"measurement": "Cmax", "setting": "[3]", "value": 87, "unit": "µM"}, {"measurement": "t1/2", "setting": "[4]", "value": 1.2, "unit": "h"}, {"measurement": "Cmax", "setting": "[5]", "value": 57, "unit": "µM"}, {"measurement": "t1/2", "setting": "[6]", "value": 4.4, "unit": "h"}, {"measurement": "fold change (FC)", "setting": "[7]", "value": 2}, {"measurement": "fold change (FC)", "setting": "[8]", "value": 3}, {"measurement": "Activity", "setting": "L6 [9]", "value": "Active"}, {"measurement": "Activity", "setting": "L6 [10]", "value": "inactive"}, {"measurement": "solubility", "setting": "[11]", "value": 18.6, "unit": "µM"}, {"measurement": "Papp B→A", "setting": "[12]", "value": 1.6, "unit": "×10⁻⁶ cm/s"}, {"measurement": "Cmax", "setting": "[13]", "value": 16, "unit": "µM"}, {"measurement": "half-life", "setting": "[14]", "value": 1.15, "unit": "h"}, {"measurement": "Vd", "setting": "[15]", "value": 0.07, "unit": "L/kg"}, {"measurement": "Vd", "setting": "[16]", "value": 0.06, "unit": "L/kg"}, {"measurement": "Activity", "setting": "Mus musculus [17]", "value": "Active"}, {"measurement": "Activity", "setting": "Mus musculus [18]", "value": "Active"}, {"measurement": "Activity", "setting": "Mus musculus [19]", "value": "inactive"}, {"measurement": "Activity", "setting": "Mus musculus [20]", "value": 4, "unit": "%"}, {"measurement": "Activity", "setting": "Mus musculus [21]", "value": 84, "unit": "%"}, {"measurement": "Activity", "setting": "Mus musculus [22]", "value": "Active"}, {"measurement": "Activity", "setting": "Mus musculus [23]", "value": "Active"}, {"measurement": "Activity", "setting": "Mus musculus [24]", "value": "Active"}, {"measurement": "Drug uptake", "setting": "[25]", "value": "Active"}, {"measurement": "Drug uptake", "setting": "[26]", "value": "Active"}, {"measurement": "Drug uptake", "setting": "[27]", "value": "Active"}, {"measurement": "Drug uptake", "setting": "[28]", "value": "Active"}, {"measurement": "Activity", "setting": "Mus musculus [29]", "value": "Active"}, {"measurement": "Activity", "setting": "Mus musculus [30]", "value": "Active"}, {"measurement": "Activity", "setting": "Mus musculus [31]", "value": "inactive"}, {"measurement": "Activity", "setting": "Mus musculus [32]", "value": "inactive"}, {"measurement": "Activity", "setting": "Mus musculus [33]", "value": "inactive"}, {"measurement": "Activity", "setting": "Mus musculus [34]", "value": "inactive"}, {"measurement": "Activity", "setting": "Mus musculus [35]", "value": "inactive"}, {"measurement": "Activity", "setting": "Mus musculus [36]", "value": "Active"}, {"measurement": "Activity", "setting": "Mus musculus [37]", "value": "Active"}, {"measurement": "Activity", "setting": "Mus musculus [38]", "value": "Active"}, {"measurement": "Activity", "setting": "Mus musculus [39]", "value": "inactive"}]}
